Reference: article PMC7188855, “Nucleic acid recognition and antiviral activity of 1,4-substituted terphenyl compounds mimicking all faces of the HIV-1 Rev protein positively-charged α-helix” (Scientific Reports, 2020)
Read-outs that look alike come from different tables or passages of the source.

Key:
[1] = test system: high-order RRE-Rev; assay: EMSA of full-length RRE-Rev ribonucleoprotein formation; type: binding, HIV-1; conditions: 78 nM RRE, 1.32 μM Rev, 300 mM KCl, 1 mM MgCl2, band of high-order complexes
From the text: After the high-affinity interaction between RRE subdomain IIB and the Rev34–50 helix of the first Rev monomer is established, the RRE-Rev ribonucleoprotein is formed by the incorporation of additional Rev units binding to further sites in the RRE (Fig. 3B, right)[9],[10],[13]. Using an electrophoretic mobility shift assay (EMSA) involving full-length RRE and Rev, we also evaluated whether 1,4-terphenyl compounds were capable of interfering with the formation of the ribonucleoprotein. […] The effect was particularly prominent for high-order complexes (containing a greater number of Rev monomers), but the inhibition of low-order complexes by 1d was also detected at concentrations consistent with the IC50 value measured in the IIB-Rev34–50 displacement experiment. Compounds 1b and 3c exerted a weaker effect on the RRE-Rev complex, in agreement with the results obtained in the displacement experiments monitored by fluorescence anisotropy (Fig. 3B and Table 1).
(§1) The experiments monitoring RRE-Rev inhibition utilized 78 nM full-length RRE and 1.32 μM full-length Rev dissolved in 10 mM HEPES pH 7.5, 300 mM KCl, 1 mM MgCl2 and 0.5 mM EDTA binding buffer, and increasing concentrations of each compound up to 50 μM[21],[39]. The reactions were incubated at room temperature for 20 minutes and loaded onto 8% polyacrylamide gels with TB running buffer. Gels were run at 4 °C for 1–4 hours at 150 V, and the bands were stained with SYBR gold and quantified with Quantity One 4.1 analysis software. Experiments monitoring binding to the 58-base pair HIV-1 LTRc core segment utilized 20 nM LTRc duplex dissolved in the same binding buffer, and increasing concentrations of each compound. The reactions were similarly incubated and loaded onto 20% polyacrylamide gels with TB running buffer. The gels were run at 4 °C for 3.5 hours at 150 V, and the bands were stained and quantified as described above. The specificity of LTRc association was evaluated by duplicating the experiments in the presence of a 100-fold molar excess of DNAd duplex (28-fold base-pair molar excess). In all cases, we monitored the disappearance of the band corresponding to high-order RRE-Rev complexes or free LTRc, and 50% response RC50 values were determined with Prism by fitting the data to a sigmoidal inhibitory model: I−Imin=ImaxC/1+C/RC50 where I is the intensity of the band corresponding to LTRc or high-order RRE-Rev species at compound concentration C, Imax the best-fit value for maximum intensity, and Imin the minimum intensity obtained at the highest concentration of inhibitor. All EMSA experiments were repeated three times for each compound.

[2] = target: RRE subdomain IIB RNA hairpin IIBh; assay: Fluorescence intensity binding to fluorescein-labelled IIBh hairpin; set-up: species or system HIV-1
From the text: We next determined whether the terphenyl molecules blocked the interaction between Rev34–50 and subdomain IIB by binding to the RNA and, if so, whether they recognized subdomain IIB in a manner similar to the Rev34–50 α-helix. We first evaluated subdomain IIB association by measuring changes in the fluorescence intensity of a IIBh RNA hairpin construct containing a fluorescein probe attached to unpaired loop IIB residue U23 (Fig. 1D)[21],[22]. […] However, there were significant differences among the compounds.
(§2) These experiments measured association to IIBh-23fl or TARh-8fl RNA molecules labelled with fluorescein at extrahelical loop nucleotides U23 and U8, respectively (Fig. 1D), and were carried out under two different ionic conditions in a Victor X5 plate reader, using excitation and emission wavelengths of 485 and 520 nm, respectively. We also attempted to measure association to an alternative IIBh hairpin containing 2-aminopurine instead of adenine at unpaired loop IIB residue A19[21], but all terphenyls fluoresced at the excitation wavelength of this fluorophore. IIBh-23fl or TARh-8fl (at 100 nM concentration) was equilibrated for 5 minutes after each ligand addition in a buffer containing either 10 mM sodium phosphate pH 6.6 and 0.1 mM EDTA or 10 mM HEPES pH 7.5, 200 mM KCl and 2 mM MgCl2. In addition to the TARh specificity control, the RNA and DNA specificity of the IIBh interactions was assessed by duplicating the experiments in the presence of a 10-fold molar excess (1 μM) of either tRNA^Lys or DNA duplex LTRd. The equilibrium dissociation constants Kd were determined by fitting the fluorescence intensity curves with DYNAFIT[40]. We used one-site, two independent-sites and two interacting-sites binding models for all curves, and the best model was automatically selected by model discrimination analysis, except where indicated. The final graphs were plotted with Prism. All fluorescence intensity experiments were performed at least two times for each compound and condition.

[3] = target: TARh hairpin containing the HIV-1 Tat-binding UCU bulge; assay: Fluorescence intensity binding to control TARh hairpin
From the text: To evaluate the specificity of subdomain IIB recognition, we measured binding to a control TARh hairpin containing the HIV-1 Tat-binding UCU bulge[23] (Fig. 1D). […] We further assessed specificity by duplicating the IIBh-23fl association experiments in the presence of a 10-fold molar excess of tRNA^Lys or a 26-base pair LTRd DNA duplex. The binding curves of the compounds were affected by the presence of competitive tRNA^Lys and to a lesser extent by LTRd (Figs. 4A, S4 and S5 and Tables 2 and S2).
as §2

[4] = test system: HIV-1; assay: Cellular HIV-1 infection assay (NL4.3-Ren, MT-2 cells); type: cell-based; conditions: Human immunodeficiency virus 1, MT2, 48 h post-infection
Protocol: (§3) The methodology used to perform and analyse these experiments has been reported elsewhere[7],[21],[22]. Briefly, infectious supernatants were obtained from transfection of plasmid pNL4.3-Ren on 293 T cells, MT-2 cells were infected with these supernatants in the presence of the compounds, and anti-HIV activity quantification was performed 48 h post-infection by determining luciferase activity in cell lysates compared to a non-treated control (100%). Cellular viability was evaluated in mock infected cells similarly treated with the same concentrations of compounds using the CellTiterGlo (Promega) assay.

[5] = Cellular viability (CellTiterGlo) in mock infected cells; type: cell-based; conditions: human, mock infected MT-2 cells
Protocol: as §3

[6] = test system: LTRc, core region of the HIV-1 LTR promoter; assay: EMSA of association to LTRc DNA; type: binding; conditions: 20 nM LTRc duplex; 10 mM HEPES pH 7.5, 300 mM KCl, 1 mM MgCl2, 0.5 mM EDTA
Protocol: as §1

[7] = target: RRE subdomain IIB-Rev34–50; assay: Fluorescence anisotropy displacement of the IIBh-Rev34–50 interaction; conditions: read-out: IC50, RRE subdomain IIB-Rev34–50, 60 nM IIBh, 10 nM frevp, 100 mM KCl, 20 mM NaCl, 2 mM MgCl2
Protocol: These experiments were conducted in a Victor X5 (PerkinElmer) plate reader as described before[7],[21], using 10 nM frevp and 60 nM IIBh. […] Each fluorescence anisotropy experiment was repeated at least two times.

[8] = low ionic strength, 10 mM sodium phosphate pH 6.6, uses Kd1
[9] = low ionic strength, 10 mM sodium phosphate pH 6.6, 0.1 mM EDTA, two-site model, read-out: Kd,1 first-site equilibrium dissociation constant (IIBh), Table S1
[10] = low ionic strength, 10 mM sodium phosphate pH 6.6, 0.1 mM EDTA, two-site model, read-out: Kd,2 second-site equilibrium dissociation constant (IIBh), Table S1

## CCc1cc(-c2cc(CCN)c(OC)cc2CCN)c(CC)cc1-c1cc(CCN)c(OC)cc1CCN [Compound 1b]
[1]
  IC50: > 50 µM
[2]; 10 mM sodium phosphate pH 6.6, 0.1 mM EDTA, two-site model, read-out: Kd (IIBh), first-site Kd1
  Kd: 0.51 µM
[2]; 10 mM sodium phosphate pH 6.6, 0.1 mM EDTA, two-site model, read-out: Kd (IIBh), second-site Kd2 (in brackets)
  Kd: 21 µM
[2]; 10-fold molar excess DNA duplex LTRd, 10 mM sodium phosphate pH 6.6, 0.1 mM EDTA, one-site fit, approximate, read-out: Kd (IIBh+LTRd)
  Kd: 6.5 µM
[2]; 10-fold molar excess LTRd, 10 mM HEPES pH 7.5, 200 mM KCl, 2 mM MgCl2, read-out: Kd (IIBh+LTRd), one-site or first-site Kd1, Table S2
  Kd: > 50 µM
[2]; 10-fold molar excess tRNALys, 10 mM HEPES pH 7.5, 200 mM KCl, 2 mM MgCl2, one-site fit, approximate, read-out: Kd (IIBh+tRNA), Table S2
  Kd: > 50 µM
[2]; 10-fold molar excess tRNALys, 10 mM sodium phosphate pH 6.6, 0.1 mM EDTA, one-site fit, approximate, read-out: Kd (IIBh+tRNA)
  Kd: 8.7 µM
[2]; higher ionic strength, 10 mM HEPES pH 7.5, 200 mM KCl, 2 mM MgCl2, read-out: Kd (IIBh), first-site Kd1, Table S2
  Kd: > 50 µM
[2]; [8]
  IIB-DNA spec., Kd(IIBh)/Kd(IIBh+LTRd): 0.078
  IIB-tRNA spec., Kd(IIBh)/Kd(IIBh+tRNA): 0.059
[3]; 10 mM sodium phosphate pH 6.6, 0.1 mM EDTA, read-out: Kd (TARh), one-site or first-site Kd1
  Kd: > 50 µM
[3]; higher ionic strength, 10 mM HEPES pH 7.5, 200 mM KCl, 2 mM MgCl2, read-out: Kd (TARh), Table S2
  Kd: > 50 µM
[4]
  EC50: > 100 µM
[5]
  CC50 at 48 h: > 100 µM
[6]
  association to LTRc (EMSA): not detected
[7]
  IC50: > 100 µM

## Cc1cc(-c2cc(CCN)ccc2CCN)c(C)cc1-c1ccccc1CCN [Compound 4]
[2]; [9]
  Kd: 3.7 µM
[2]; [10]
  Kd: 33 µM
[4]
  EC50: 50 to 100 µM
[5]
  CC50 at 48 h: > 100 µM
[7]
  IC50: > 100 µM

## COc1cc(CCCN)c(-c2cc(C)c(-c3cc(CCCN)c(OC)cc3CCCN)cc2C)cc1CCCN [Compound 2a]
[2]; [9]
  Kd: 0.67 µM
[2]; [10]
  Kd: 25 µM
[4]
  EC50: > 100 µM
[5]
  CC50 at 48 h: > 100 µM
[7]
  IC50: > 100 µM

## COc1ccc(-c2cc(C)c(-c3cc(CCN)c(OC)cc3CCN)cc2C)cc1CCN [Compound 3a]
[2]; [9]
  Kd: 8.9 µM
[2]; [10]
  Kd: 36 µM
[4]
  EC50: 35.5 µM
[5]
  CC50 at 48 h: > 100 µM
[7]
  IC50: > 100 µM

## CCc1cc(-c2cc(CCCN)c(OC)cc2CCCN)c(CC)cc1-c1cc(CCCN)c(OC)cc1CCCN [Compound 2b]
[2]; [9]
  Kd: 0.11 µM
[2]; [10]
  Kd: 46 µM
[4]
  EC50: > 100 µM
[5]
  CC50 at 48 h: > 100 µM
[7]
  IC50: > 100 µM

## CCOc1cc(CCN)c(-c2cc(C)c(-c3cc(CCN)c(OCC)cc3CCN)cc2C)cc1CCN [Compound 1c]
[2]; [9]
  Kd: 0.19 µM
[2]; [10]
  Kd: 74 µM
[4]
  EC50: > 100 µM
[5]
  CC50 at 48 h: > 100 µM
[7]
  IC50: > 100 µM

## COc1ccc(-c2cc(C)c(-c3cc(CCN)ccc3CCN)cc2C)cc1CCN [Compound 3b]
[2]; [9]
  Kd: 5.5 µM
[2]; [10]
  Kd: 22 µM
[4]
  EC50: > 100 µM
[5]
  CC50 at 48 h: > 100 µM
[7]
  IC50: > 100 µM
